Test results as given in patent US20180353486A1, “METHODS AND PHARMACEUTICAL COMPOSITIONS FOR THE TREATMENT OF DARIER DISEASE” (INSERM (Institut National de la Sante et de la Recherche …, priority 2015, published 2018).

Tests used:
[1] = system: NFATc1 in normal keratinocytes (NKs); experiment: NFATc1 expression and nuclear localization (qRT-PCR, western blot) in thapsigargin-treated normal keratinocytes; format: cell-based, human; settings: 1 μM TG
Method: (§1) FIG. 4: TG-treated NK display the same features as DK. NKs were pretreated (TG) or not (−) with 1 μM of TG for 24 hours. a-b. […] Reversion by CsA treatment. c-d. TG-treated NK display premature differentiation markers up-regulation. SPRR2, LCE3B-E and loricrin expression is induced after 24 h (TG24) and 48 h (TG48) of TG-treatment in NK. *P<0.05. Results are from NKs from two donors (a) and one donor (b-d) and are representative of two independent experiments from two NKs.
To test whether loss of SERCA2 function is sufficient to induce NFATc1 overexpression and activation associated with premature expression of EDC genes, NKs were treated with 1 μM of thapsigargin (TG), a SERCA pumps inhibitor, for 24 and/or 48 hours to mimick SERCA2 dysfunction in DK.

[2] = system: LCE3D, LCE3E, SPRR2B, SPRR2D and loricrin in normal keratinocytes (NKs); experiment: Expression of EDC differentiation genes (qRT-PCR, western blot) in thapsigargin-treated normal keratinocytes; format: cell-based, human; settings: 1 μM TG, 24 and/or 48 hours
Method: as §1
In order to confirm that upregulation of differentiation genes is due to SERCA2 defect, qRT-PCR and western blot analysis were performed on TG-treated NKs.

[3] = system: NFATc1 nuclear localization in Darier keratinocytes (DKs); experiment: NFATc1 nuclear/cytoplasmic localization by western blot in Darier keratinocytes; format: cell-based, human; settings: 100 ng/ml Tacrolimus, 24 hours
Method: Nuclear (N) and cytoplasmic (C) cell extracts were immunoblotted for NFATc1 and actin for normalization.
Therefore, we treated healthy keratinocytes and DKs with 10 μM of CsA or 100 ng/ml of Tacrolimus for 24 hours. Western blot experiments using a specific antibody directed against NFATc1 were performed on nuclear and cytosolic extracts.

[4] = system: LCE3D, LCE3E, SPRR2B, SPRR2D and loricrin in Darier keratinocytes (DKs); experiment: Expression of EDC differentiation genes (qRT-PCR, western blot) in Darier keratinocytes after NFATc1 inhibition; format: cell-based, human
Method: FIG. 5: Calcineurin inhibitors and NFATc1 inhibition decreased premature differentiation in DK. Quantitative RT-PCR and western blot were performed on mRNA and protein extracts from five DKs after 48 h Tacrolimus (a-b) or 24 h and 48 h CsA treatment (b). For (a), results are expressed as fold repression compared to non-treated DK and are the mean+/−SEM of five DK. Results are representative of two independent experiments. Asterisks represent statistical significance versus the appropriate control in each case. *P<0.05 and***P<0.001 c. Relative efficiency of small interfering RNA (siRNA)-mediated NFATc1 silencing compared to scrambled control by quantitative PCR and western blotting. Decreased expression of differentiation genes after NFATc1 specific inhibition at mRNA (d). For (d), results are expressed as fold repression compared to DKs transfected with scrambled si-RNA and are the mean+/−SEM of four DK from one experiment.
To substantiate the role of NFATc1 as an enhancer of EDC genes expression in DKs and TG-treated NKs grown in basal condition, we inhibited NFATc1 activation indirectly (using calcineurin inhibitors) and directly (using small interfering RNA-mediated NFATc1 silencing), in Darier keratinocytes.
DKs maintained in proliferating conditions were treated with 100 ng ml^−1 of Tacrolimus for 24 hours.

[5] = system: Darier disease; settings: few isolated cases, when retinoids were not recommended; systemic Cyclosporin, topical Tacrolimus; cited from earlier work

SMILES | NFATc1 expression (quantitative RT-PCR) ([1]; 24 hours) | NFATc1 protein in nuclear extracts (western blot) ([1]; vs non-treated NKs) | Expression of LCE3D, LCE3E, SPRR2B, SPRR2D and loricrin transcripts and proteins (qRT-PCR, western blot) [2] | NFATc1 localization in nuclear and cytosolic extracts (western blot) [3] | Expression of LCE3D, LCE3E, SPRR2B, SPRR2D and loricrin (quantitative RT-PCR) ([4]; DKs in proliferating conditions, 100 ng ml^−1 Tacrolimus, 24 hours) | LCE3B-E, SPRR2 and loricrin protein expression (western blot) ([4]; DKs, Tacrolimus treatment) | Treatment of Darier disease in patients [5]
C/C=C(/C)C(=O)O[C@H]1C(C)=C2[C@H]([C@@H]1OC(=O)CCCCCCC)[C@@](C)(OC(C)=O)C[C@H](OC(=O)CCC)[C@@]1(O)[C@H]2OC(=O)[C@@]1(C)O [TG, thapsigargin] | increased NFATc1 expression | a higher amount of NFATc1 protein was located in the nucleus | increased expression |  |  |  | 
C=CC[C@@H]1/C=C(\C)C[C@H](C)C[C@H](OC)[C@H]2O[C@@](O)(C(=O)C(=O)N3CCCC[C@H]3C(=O)O[C@H](/C(C)=C/[C@@H]3CC[C@@H](O)[C@H](OC)C3)[C@H](C)[C@@H](O)CC1=O)[C@H](C)C[C@@H]2OC [Tacrolimus] |  |  |  | induced NFATc1 translocation from the nucleus to the cytoplasm | significantly decreased | reduced LCE3B-E, SPRR2 and loricrin expression | successfully used
